Assay results as given in ChEMBL document CHEMBL1201862, “PubChem BioAssay data set” (2004).
Calls of active or inactive are those of the source.

Tests used:
[1] = HeLa 2N DNA content increase, dose response, cell-based, IC50 (AID 1117349); type: functional
[2] = Concentration-dependent survival of SW480 colon cancer line, luminescence detection with CellTiter-Glo, half-maximal inhibitory concentration (AID 1117338); type: functional
[3] = RKO cell viability reduction, dose response, CellTiter-Glo luminescence (AID 1117322); type: functional
[4] = cytotoxicity toward HCT116 cells – cell-based, CellTiter-Glo luminescence, IC50, dose response (AID 1117332); type: functional; details: HCT-116
[5] = SNU-C1 cell viability reduction, dose response, CellTiter-Glo luminescence (AID 1117323); type: functional, cell-based
[6] = cytotoxicity toward Colo320 cells – cell-based, CellTiter-Glo luminescence, IC50, dose response (AID 1117334); type: functional; details: COLO 320
[7] = HeLa 4N DNA content increase, dose response, cell-based, IC50 (AID 1117351); type: functional
[8] = cytotoxicity toward HT-29 cells – cell-based, CellTiter-Glo luminescence, IC50, dose response (AID 1117330); type: functional
[9] = CellTiter-Glo luminescent dose response of DLD-1 viability loss (AID 1117352); type: functional
[10] = P. falciparum late gametocyte killing, dose response, luminescence (AID 1117278); type: functional, cell-based;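 note: gametocytes exposed to compound for 24 hours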
[11] = Jurkat T cell cytotoxicity, dose response, cytotoxicity control for P. falciparum gametocyte viability project, luminescence (AID 1117277); type: functional, cell-based;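 note: potency reflects loss of cellular ATP meaning fewer viable cells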
[12] = target: T1, RNA-binding protein pos-1 (Caenorhabditis elegans, UniProt G5EF15); experiment: inhibitors of POS-1/mex-3 RNA binding, dose response, biochemical, fluorescence polarization (AID 1964);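 note: purified POS-1 fused to maltose binding protein made in E. coli; potency of compounds blocking POS-1 binding to fluorescent RNA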
T1 sequence (G5EF15 whole entry): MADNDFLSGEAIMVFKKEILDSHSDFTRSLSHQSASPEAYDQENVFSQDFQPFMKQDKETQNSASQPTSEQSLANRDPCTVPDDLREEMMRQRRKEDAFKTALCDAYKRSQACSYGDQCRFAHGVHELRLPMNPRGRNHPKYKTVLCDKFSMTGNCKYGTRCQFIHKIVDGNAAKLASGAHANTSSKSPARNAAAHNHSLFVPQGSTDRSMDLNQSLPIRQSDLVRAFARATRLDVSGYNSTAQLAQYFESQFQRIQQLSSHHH

[13] = target: T2, Zinc finger protein mex-5 (Caenorhabditis elegans, UniProt Q9XUB2); experiment: MEX-5/TCR-2 RNA interaction inhibitors, dose response, biochemical, C. elegans, fluorescence polarization (AID 1960)
T2 sequence (Q9XUB2 whole entry): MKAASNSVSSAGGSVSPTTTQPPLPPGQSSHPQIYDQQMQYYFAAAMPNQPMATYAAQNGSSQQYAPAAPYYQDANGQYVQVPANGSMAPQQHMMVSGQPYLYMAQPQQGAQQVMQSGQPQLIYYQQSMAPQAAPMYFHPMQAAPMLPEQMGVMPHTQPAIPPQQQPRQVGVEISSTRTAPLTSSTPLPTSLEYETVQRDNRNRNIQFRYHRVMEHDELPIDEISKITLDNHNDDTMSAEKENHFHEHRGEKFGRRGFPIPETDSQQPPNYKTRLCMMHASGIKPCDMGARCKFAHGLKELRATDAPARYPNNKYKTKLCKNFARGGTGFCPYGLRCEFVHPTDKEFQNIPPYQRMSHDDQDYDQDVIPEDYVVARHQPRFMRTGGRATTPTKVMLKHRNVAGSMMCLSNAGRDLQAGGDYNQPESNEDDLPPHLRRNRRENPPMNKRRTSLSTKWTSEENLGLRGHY

Estrogen receptor = target: T3, Estrogen receptor (Homo sapiens, UniProt P03372); experiment: potentiators of ERα–SRC-1 coactivator binding, dose response, biochemical, TR-FRET, ERα LBD (AID 737)
T3 sequence (P03372 whole entry): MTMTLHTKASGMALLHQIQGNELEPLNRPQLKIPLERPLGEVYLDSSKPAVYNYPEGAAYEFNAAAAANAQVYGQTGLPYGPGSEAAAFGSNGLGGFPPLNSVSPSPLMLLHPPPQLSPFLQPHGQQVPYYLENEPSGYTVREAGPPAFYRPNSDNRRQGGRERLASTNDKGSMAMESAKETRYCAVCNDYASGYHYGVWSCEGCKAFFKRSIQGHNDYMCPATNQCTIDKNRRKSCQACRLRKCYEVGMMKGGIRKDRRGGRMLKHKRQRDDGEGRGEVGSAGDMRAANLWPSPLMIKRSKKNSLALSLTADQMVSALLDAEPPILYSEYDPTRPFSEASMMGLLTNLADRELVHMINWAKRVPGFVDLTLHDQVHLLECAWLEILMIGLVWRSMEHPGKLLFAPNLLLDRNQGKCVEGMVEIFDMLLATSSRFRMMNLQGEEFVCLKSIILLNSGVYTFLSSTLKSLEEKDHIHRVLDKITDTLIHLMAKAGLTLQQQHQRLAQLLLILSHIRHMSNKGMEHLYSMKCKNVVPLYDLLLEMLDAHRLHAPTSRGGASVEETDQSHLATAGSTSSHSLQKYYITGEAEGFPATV

[14] = target: T4, Oxysterols receptor LXR-beta (Homo sapiens, UniProt P55055); type: functional, cell-based;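 note: Cell-based luminescence dose-response assay of agonist activity at LXR, run as a confirmatory counterscreen to a daf-12 agonist screen; HEK293 cells with Gal4-LXR fusion and GAL4-driven luciferase reporter; agonist potency from rising luciferase signal of a Gal4-LXR reporter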
T4 sequence (P55055 whole entry): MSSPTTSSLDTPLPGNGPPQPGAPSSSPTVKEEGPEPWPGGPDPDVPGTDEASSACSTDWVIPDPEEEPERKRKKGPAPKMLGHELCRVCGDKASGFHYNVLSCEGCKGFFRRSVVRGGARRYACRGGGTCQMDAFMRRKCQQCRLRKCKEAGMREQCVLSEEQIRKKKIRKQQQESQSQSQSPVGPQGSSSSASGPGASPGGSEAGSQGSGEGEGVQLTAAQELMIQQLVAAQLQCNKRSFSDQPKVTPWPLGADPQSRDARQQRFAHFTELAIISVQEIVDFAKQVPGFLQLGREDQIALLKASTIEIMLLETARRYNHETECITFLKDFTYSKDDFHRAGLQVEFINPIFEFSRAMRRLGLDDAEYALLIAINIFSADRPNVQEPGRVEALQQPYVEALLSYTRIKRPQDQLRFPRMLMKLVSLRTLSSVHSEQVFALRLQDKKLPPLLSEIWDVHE

Protein Tat = Protein Tat (Human immunodeficiency virus type 1 group M subtype B (isolate HXB2)(HIV-1), UniProt P04608); type: functional;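 note: tat binding to TAR RNA read out by fluorescence polarization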
Chain of Protein Tat (P04608 whole entry): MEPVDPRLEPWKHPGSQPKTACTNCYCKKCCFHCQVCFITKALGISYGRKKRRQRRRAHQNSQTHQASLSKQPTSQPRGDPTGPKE

[15] = target: NAD-dependent protein deacylase sirtuin-5, mitochondrial (Homo sapiens, UniProt Q9NXA8); experiment: SIRT5 desuccinylase inhibitors, dose response, biochemical, fluorescence imaging, cherry-pick, set 5 (AID 720591);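 note: desuccinylation of succinyl peptide AMC substrate read as fluorescence after trypsin release; potency of inhibitors that lower fluorescence and may act on trypsin instead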
Chain of NAD-dependent protein deacylase sirtuin-5, mitochondrial (Q9NXA8 whole entry): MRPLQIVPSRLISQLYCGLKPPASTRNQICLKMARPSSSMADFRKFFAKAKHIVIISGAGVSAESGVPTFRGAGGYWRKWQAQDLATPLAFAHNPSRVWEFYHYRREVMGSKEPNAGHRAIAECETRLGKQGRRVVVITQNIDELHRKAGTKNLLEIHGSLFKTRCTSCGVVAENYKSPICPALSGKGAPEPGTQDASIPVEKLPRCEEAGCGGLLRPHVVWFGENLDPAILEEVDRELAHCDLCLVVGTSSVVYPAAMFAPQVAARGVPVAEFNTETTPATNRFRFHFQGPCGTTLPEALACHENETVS

Escherichia coli [16] = experiment: microbe, parasite or virus in culture
Escherichia coli [17] = experiment: microbe, parasite or virus in culture; remark: listed apart in the source
[18] = target: T5, Carboxy-terminal domain RNA polymerase II polypeptide A small phosphatase 1 (Homo sapiens, UniProt Q9GZU7); experiment: inhibitors of CTDSP1, concentration-response testing, biochemical assay, absorbance-based, actives from ultra-high-throughput screening (AID 540297); type: functional
T5 sequence (Q9GZU7 whole entry): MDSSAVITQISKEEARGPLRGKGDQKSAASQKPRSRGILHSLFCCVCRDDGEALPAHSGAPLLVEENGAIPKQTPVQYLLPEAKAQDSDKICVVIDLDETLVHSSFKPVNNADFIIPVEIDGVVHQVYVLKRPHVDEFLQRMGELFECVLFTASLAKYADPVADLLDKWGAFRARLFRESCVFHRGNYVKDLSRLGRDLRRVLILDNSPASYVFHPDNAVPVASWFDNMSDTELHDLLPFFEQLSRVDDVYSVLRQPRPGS

[19] = target: T6, Small ubiquitin-related modifier 1 (Homo sapiens, UniProt P63165); experiment: inhibitors of SUMO1 peptide binding, dose response, biochemical, fluorescence polarization, uHTS hits (AID 624382); type: functional; details: read-out: IC50_Mean
T6 sequence (P63165 whole entry): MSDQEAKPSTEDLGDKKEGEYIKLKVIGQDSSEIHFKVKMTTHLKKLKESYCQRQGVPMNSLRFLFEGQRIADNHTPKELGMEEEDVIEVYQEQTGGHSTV

[20] = target: T7, Probable nicotinate-nucleotide adenylyltransferase (Staphylococcus aureus (strain N315), UniProt P65502); type: functional, Staphylococcus aureus subsp. aureus N315;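 for IC50 Mean: confirmatory dose-response retesting of NadD inhibitor hits first found in an ultra-high-throughput screen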
T7 sequence (P65502 whole entry): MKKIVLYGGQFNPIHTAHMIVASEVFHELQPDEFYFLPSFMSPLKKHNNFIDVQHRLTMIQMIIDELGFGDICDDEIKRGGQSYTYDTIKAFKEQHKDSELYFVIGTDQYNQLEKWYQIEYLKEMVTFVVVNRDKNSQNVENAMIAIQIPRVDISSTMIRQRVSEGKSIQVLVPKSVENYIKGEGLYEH

[21] = target: T7, Probable nicotinate-nucleotide adenylyltransferase; type: functional, Staphylococcus aureus subsp. aureus N315; details: read-out: IC50_Mean
[22] = target: T6, Small ubiquitin-related modifier 1; experiment: inhibitors of SUMO1 partner interactions, dose response, biochemical, FRET (AID 624383); type: functional; details: read-out: IC50_Mean
[23] = THP-1 cell cytotoxicity, dose response, cytotoxicity control for Vif-APOBEC3G degradation inhibitor project, THP-1 cells (AID 1117359); type: functional; details: Human immunodeficiency virus 1, THP-1
[24] = target: G-protein coupled receptor 183 (Homo sapiens, UniProt P32249); experiment: SAR confirmation of small molecule antagonists of the EBI2 receptor via a luminescent beta-arrestin assa.; type: functional
Chain of G-protein coupled receptor 183 (P32249 whole entry): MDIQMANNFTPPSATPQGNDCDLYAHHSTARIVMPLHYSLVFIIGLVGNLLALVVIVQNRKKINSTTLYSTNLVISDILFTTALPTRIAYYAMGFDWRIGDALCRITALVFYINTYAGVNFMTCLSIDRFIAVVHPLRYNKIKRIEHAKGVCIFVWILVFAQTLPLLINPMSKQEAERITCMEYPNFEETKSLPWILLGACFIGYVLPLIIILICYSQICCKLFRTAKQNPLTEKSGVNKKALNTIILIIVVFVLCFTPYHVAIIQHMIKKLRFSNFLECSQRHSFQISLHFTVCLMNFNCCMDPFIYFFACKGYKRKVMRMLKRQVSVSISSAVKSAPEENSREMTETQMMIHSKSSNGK

[25] = P. falciparum Dd2 growth inhibitors, dose response, SYBR Green, cherry-picked samples (AID 1159567); type: functional, cell-based
[26] = HepG2 cell cytotoxicity, dose response, cytotoxicity control, cherry-picked samples (AID 1159577); type: functional, cell-based
[27] = P. falciparum 3D7-ScDHODH growth inhibitors, dose response, SYBR Green, dry powder samples (AID 1159570); type: functional, cell-based;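 note: parasite growth measured after 72 hours of compound exposure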
[28] = P. falciparum Dd2 growth inhibitors, dose response, SYBR Green, dry powder samples (AID 1159566); type: functional, cell-based;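 note: potency for growth inhibition with lower SYBR green DNA signal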
[29] = P. falciparum ATP4 D1247Y mutant growth inhibitors, dose response, NITD609-resistant line, SYBR Green, dry powder (AID 1159571); type: functional, cell-based;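 note: parasites synchronized at ring stage by sorbitol before testing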
[30] = target: T8, Low molecular weight phosphotyrosine protein phosphatase (Homo sapiens, UniProt P24666); experiment: LMPTP phosphatase inhibitors, dose response, biochemical, OMFP substrate, fluorescence intensity, set 2 (AID 743307); type: functional
T8 sequence (P24666 whole entry): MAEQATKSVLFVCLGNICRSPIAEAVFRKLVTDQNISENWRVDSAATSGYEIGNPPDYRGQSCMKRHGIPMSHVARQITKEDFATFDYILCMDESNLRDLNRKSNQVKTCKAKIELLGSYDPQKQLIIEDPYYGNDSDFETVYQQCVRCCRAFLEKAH

[31] = target: T8, Low molecular weight phosphotyrosine protein phosphatase; experiment: LMPTP phosphatase inhibitors, colorimetric pNPP readout, dose response, orthogonal assay, biochemical, absorbance, pNPP substrate, LMPTP-A isoform, set 2 (AID 743308); type: functional

COc1ccc(-c2ccc3cc(C(=O)O)ccc3c2)cc1C12CC3CC(CC(C3)C1)C2
IC50 [1]: > 10 µM (inactive)
IC50 [2]: 405 nM (active)
IC50 [3]: 444 nM (active)
IC50 [4]: 590 nM (active)
IC50 [5]: 1.78 µM (active)
IC50 [6]: 787 nM (active)
IC50 [7]: > 10 µM (inactive)
IC50 [8]: 1.12 µM (active)
IC50 [9]: 597 nM (active)

Cc1ccc2nc(-c3ccccc3)c(-c3ccccc3)nc2c1
IC50 [10]: > 109 µM (inactive)
IC50 [11]: > 83.3 µM (inactive)

Cc1ccc2ccc(C3C(=O)c4ccccc4C3=O)nc2c1
EC50 [12]: > 300 µM (not active)
EC50 [13]: 48.4 µM (active)
EC50 (Estrogen receptor): 13.2 µM (not active)
EC50 [14]: > 67.6 µM (inactive)
EC50 (cells): > 67.6 µM (inactive)

COc1ccc(CCNC(=O)CN2CCCc3ccccc32)cc1OC
IC50 (Protein Tat): > 100 µM (active)

CC(C)(C)c1cccc(OCCCSc2ncccn2)c1
IC50 [10]: > 109 µM (inactive)
IC50 [11]: > 83.3 µM (inactive)

C=C1c2cccc(O)c2C(=O)C2C(=O)[C@]3(O)C(=O)C(C(N)=O)C(=O)[C@@H](N(C)C)[C@@H]3[C@@H](O)[C@H]12 (some centres undefined)
AC50 [15]: 12.7 µM (active)
AC50 (Escherichia coli [16]): 31.7 µM (active)
AC50 (Escherichia coli [17]): 2.19 µM (active)

O=C(COC(=O)c1c2c(nc3ccccc13)/C(=C\c1ccco1)CC2)NC1CCCC1
IC50 [18]: 2.49 µM (active)
IC50 [19]: > 66.6 µM (inactive)
IC50 [20]: 8.49 µM (active)
IC50 [21]: 16.9 µM (active)
IC50 [22]: 10.4 µM (active)
IC50 (Protein Tat): > 100 µM (active)
CC50 [23]: > 40 µM (active)

COC(=O)c1ccc2nc(-c3ccc(OC)c(OC)c3)c(Cc3ccccc3C(F)(F)F)n2c1
AC50 [15]: > 30 µM (inactive)

O=C(/C=C/c1ccc(Br)cc1F)N1CCN(S(=O)(=O)c2ccc(Br)cc2)CC1
IC50 [24]: 65.5 nM (active)

CCc1nc(N2[C@H](C#N)[C@H](c3ccccc3-c3ccccc3F)[C@@H]2CO)sc1C
AC50 [25]: 8.71 µM (active)
AC50 [26]: > 39 µM (inactive)

Fc1cccc(-c2ccc([C@@H]3[C@@H]4CN(Cc5cccnc5)C[C@H]3N4)cc2)c1
AC50 [25]: 0.348 µM (active)
AC50 [26]: 13 µM (active)

C[C@@H]1CN([C@@H](C)CO)C(=O)Cc2cc(NC(=O)Nc3ccc4c(c3)OCO4)ccc2O[C@@H]1CN(C)CC1CC1
AC50 [27]: 4.73 µM (active)
AC50 [25]: 2.37 µM (active)
AC50 [28]: 2.02 µM (active)
AC50 [29]: 2.76 µM (active)

COc1cc2nc(-c3ccccc3)cc(NCCCN3CCCCC3)c2cc1OC
IC50 [30]: > 80 µM (inactive)
IC50 [31]: > 80 µM (inactive)

O=C(/C=C/c1ccc(Br)cc1)N1CCN(Cc2ccc(F)cc2C(F)(F)F)CC1
IC50 [24]: 8.18 nM (active)

c1ccc(-c2cc(OCCCN3CCCCC3)c3ccccc3n2)cc1
IC50 [30]: 11.5 µM (active)
IC50 [31]: 19 µM (active)
